Broadly, the IC50 is the concentration that inhibits the measured activity by half. By microsomal CLint is commonly meant a measure of how fast metabolising enzymes remove a compound, apart from limits set by blood flow. Low values mean greater metabolic stability, high ones faster metabolism.

Data set [1] has as its system MV4;11 cells. The data set can be described thus: Proliferation assay, MV4;11 (CellTiter-Glo, 7 days). It is filed as cell-based, human. As to conditions: Homo sapiens, MV4-11, 168 h, read-out: MV-4-11 IC50. Put shortly:
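Cells seeded at 125 (MOLM-13), 300 (MV4;11), 75 (OCI-AML3) or 200 (HEL) per well were exposed to 3.16-fold compound dilutions (0.1% DMSO) for 7 days at 37° C. Viability by CellTiter-Glo luminescence, normalized to DMSO (100%) and day-0 plate (0%); IC50 from one-site dose-response fit.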
A general note: Cellular ATP, detected with luciferase, serves as a proxy for viable cell number.

The target of data set [2] is hERG (Homo sapiens (Human), UniProt Q12809). Nature of the data set: hERG assay 1 (standard), SyncroPatch 384PE. It is filed as cell-based. As to conditions: CHO cells, room temperature, up to 40 uM. Put shortly: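 Automated patch clamp on hERG-expressing CHO-K1 cells at room temperature, +60/−40 mV protocol every 15 s. Six-point cumulative concentrations 139 nM to 40 uM (0.33% DMSO final); IC50 from one-site fit of % inhibition. Wells required ≥30 MegaOhm seal, current >0.2 nA, Z prime >0.4.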
Sequence of hERG (Q12809 whole entry): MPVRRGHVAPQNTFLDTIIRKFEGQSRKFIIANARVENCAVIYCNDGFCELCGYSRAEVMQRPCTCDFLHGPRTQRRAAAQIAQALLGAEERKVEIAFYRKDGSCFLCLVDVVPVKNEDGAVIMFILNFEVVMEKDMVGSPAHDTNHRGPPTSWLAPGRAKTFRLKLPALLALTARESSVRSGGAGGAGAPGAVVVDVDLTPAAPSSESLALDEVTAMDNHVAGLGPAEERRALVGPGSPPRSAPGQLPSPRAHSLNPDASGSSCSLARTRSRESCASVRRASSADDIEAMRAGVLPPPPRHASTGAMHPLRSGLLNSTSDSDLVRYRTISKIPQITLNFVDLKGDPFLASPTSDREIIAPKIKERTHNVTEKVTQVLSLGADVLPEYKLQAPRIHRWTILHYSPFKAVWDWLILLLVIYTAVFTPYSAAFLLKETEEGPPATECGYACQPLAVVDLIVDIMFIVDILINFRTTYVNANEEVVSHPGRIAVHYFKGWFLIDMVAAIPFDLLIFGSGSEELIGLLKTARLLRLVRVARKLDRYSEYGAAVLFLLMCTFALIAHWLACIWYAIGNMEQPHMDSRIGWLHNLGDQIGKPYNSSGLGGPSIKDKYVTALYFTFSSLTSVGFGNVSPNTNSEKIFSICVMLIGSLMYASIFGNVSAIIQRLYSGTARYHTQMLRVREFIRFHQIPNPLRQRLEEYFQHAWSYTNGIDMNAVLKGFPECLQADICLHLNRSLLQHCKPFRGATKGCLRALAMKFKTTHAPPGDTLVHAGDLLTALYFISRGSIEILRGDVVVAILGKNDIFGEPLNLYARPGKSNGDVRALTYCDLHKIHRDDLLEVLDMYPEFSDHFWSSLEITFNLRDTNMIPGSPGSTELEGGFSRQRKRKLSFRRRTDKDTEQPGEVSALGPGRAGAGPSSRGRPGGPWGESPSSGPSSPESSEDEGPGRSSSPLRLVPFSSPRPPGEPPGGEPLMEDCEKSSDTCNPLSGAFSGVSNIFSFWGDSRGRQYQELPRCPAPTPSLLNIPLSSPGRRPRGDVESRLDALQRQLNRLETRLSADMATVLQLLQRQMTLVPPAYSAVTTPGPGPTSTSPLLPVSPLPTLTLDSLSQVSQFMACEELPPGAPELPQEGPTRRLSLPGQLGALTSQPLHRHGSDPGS

A short description of data set [3]: Human liver microsomes (HLMs) intrinsic clearance assay. It is filed as in vitro ADME. As to conditions: human, microsomes, pH 7.4, HLM CLint.

`CC(C)c1cnccc1-c1cc(F)ccc1-n1cc(C(=O)C2CN(C(=O)[C@H]3N[C@@H]4CC[C@H]3C4)C2)c2ccncc21.O=CO` [Example 11, (1-((1R,3S,4S)-2-Azabicyclo[2.2.1]heptane-3-carbonyl)azetidin-3-yl)(1-(4-fluoro-2-(3-isopropylpyridin-4-yl)phenyl)-1H-pyrrolo[2,3-c]pyridin-3-yl)methanone 1·formic acid]: the IC50 in data set [1] was 31 nM; in data set [2], above 40000 nM. In data set [3], the microsomal CLint at 1 µM was above 294 µL/min/mg.
For `CC(C)N(C(=O)c1cc(F)ccc1-n1cc(C(=O)C2CCN(C(=O)[C@@H]3CCC(C)(C)N3)CC2)c2ccncc21)C(C)C` [Example 27, (S)-2-(3-(1-(5,5-Dimethylpyrrolidine-2-carbonyl)piperidine-4-carbonyl)-1H-pyrrolo[2,3-c]pyridin-1-yl)-5-fluoro-N,N-diisopropylbenzamide] the same measures were 35 nM, above 40000 nM and 46 µL/min/mg.
For the molecule `CCN(C(=O)c1cc(F)ccc1-n1cc(C(=O)C2CCN(C(=O)[C@H]3N[C@H]4C[C@@H]3[C@@H](F)C4)CC2)c2ccncc21)C(C)C` [Example 30, N-Ethyl-5-fluoro-2-(3-(1-((1S,3S,4S,5S)-5-fluoro-2-azabicyclo[2.2.1]heptane-3-carbonyl)piperidine-4-carbonyl)-1H-pyrrolo[2,3-c]pyridin-1-yl)-N-isopropylbenzamide], the IC50 is 33 nM in data set [1] and above 40000 nM in data set [2]. Moreover, in data set [3], the intrinsic metabolic clearance (microsomal CLint) at 1 µM is 54 µL/min/mg.
For `CC(C)N(C(=O)c1cc(F)ccc1-n1cc(C(=O)[C@@H]2CCN(C[C@H]3CC[C@H](NS(C)(=O)=O)CC3)C2)c2ccncc21)C(C)C` [Example 4, 5-Fluoro-N,N-diisopropyl-2-(3-((R)-1-(((1r,4R)-4-(methylsulfonamido)-cyclohexyl)methyl)pyrrolidine-3-carbonyl)-1H-pyrrolo[2,3-c]pyridin-1-yl)benzamide] the same measures were 132 nM, 6300 nM and 171 µL/min/mg.
For `CCN(C(=O)c1cc(F)ccc1-n1cc(C(=O)C2CCN(C(=O)[C@H]3N[C@@H]4CC[C@H]3C4)CC2)c2ccncc21)C(C)C` [Example 31, 2-(3-(1-((1R,3S,4S)-2-Azabicyclo[2.2.1]heptane-3-carbonyl)piperidine-4-carbonyl)-1H-pyrrolo[2,3-c]pyridin-1-yl)-N-ethyl-5-fluoro-N-isopropylbenzamide] the same measures were 32 nM, above 40000 nM and 23 µL/min/mg.
On to `CC(C)c1ncsc1-c1cc(F)ccc1-n1cc(C(=O)C2CCN(C(=O)[C@H]3N[C@@H]4CC[C@H]3C4)CC2)c2ccncc21.O=CO` [Example 42, (1-((1R,3S,4S)-2-Azabicyclo[2.2.1]heptane-3-carbonyl)piperidin-4-yl)(1-(4-fluoro-2-(4-isopropylthiazol-5-yl)phenyl)-1H-pyrrolo[2,3-c]pyridin-3-yl)methanone 1·formic acid], for which the IC50 in data set [1] was 43 nM; in data set [2], above 40000 nM. Also, the microsomal CLint at 1 µM in data set [3] came to 219 µL/min/mg.

Values taken from patent publication US20240335431A1, “1-H-PYRROLO[2,3-c]PYRIDINE COMPOUNDS” (Acerta Pharma B.V., priority 2023, published 2024).
